From patent US7384965B2, “Fused heterocyclic derivatives as PPAR modulators” (Eli Lilly and Company, priority 2003, dated 2008)

Compared with `O=C(O)Cc1csc2cc(OCc3cccc4nc(-c5ccc(C(F)(F)F)cc5)oc34)ccc12` [Example 70, 6-[2-(4-Trifluoromethylphenyl)benzooxazol-7-ylmethoxy]benzo[b]thiophen-3-ylacetic Acid], `CC(C)(Sc1ccc2c(CC(=O)O)csc2c1)c1cccc2nc(-c3ccc(C(F)(F)F)cc3)oc12` [Example 78, 6-{1-Methyl-1-[2-(4-trifluoromethylphenyl)benzooxazol-7-yl]ethylsulfanyl}benzo[b]thiophen-3-ylacetic Acid] is lower in melting point: 215 to 216 °C for the first, 110 to 113 °C for the second.

First: Cc1cc(SCCc2ccc3sc(-c4ccc(C(F)(F)F)cc4)nc3c2)ccc1CCC(=O)O [Example 56, 3-(2-Methyl-4-{2-[2-(4-trifluoromethylphenyl)benzothiazol-5-yl]ethylsulfanyl}phenyl)propionic Acid]
Second: Cc1cc(SCc2ccc3nc(-c4ccc(C(F)(F)F)cc4)sc3c2)ccc1CCC(=O)O [Example 58, 3-{2-Methyl-4-[2-(4-trifluoromethylphenyl)benzothiazol-6-ylmethylsulfanyl]phenyl}propionic Acid]
The melting point of the first is lower: 108 to 110 °C for the first, 194 to 196 °C for the second.

Compared with `CCc1cc(SCc2ccnc3c2nc(-c2ccc(C(F)(F)F)cc2)n3C)ccc1OCC(=O)O` [Example 109, 2-Ethyl-4-[3-methyl-2-(4-trifluoromethylphenyl)-3H-imidazo[4,5-b]pyridin-7-ylmethylsulfanyl]phenoxyacetic Acid], `CCc1cc(SCc2ccnc3sc(-c4ccc(C(F)(F)F)cc4)nc23)ccc1OCC(=O)O` [Example 102, 2-Ethyl-4-[2-(4-trifluoromethylphenyl)thiazolo[5,4-b]pyridin-7-ylmethylsulfanyl]phenoxyacetic Acid] is higher in melting point: 118 to 120 °C for the first, 176 to 178 °C for the second.

First: Cc1cc(SCc2ccnc3[nH]c(-c4ccc(C(F)(F)F)cc4)nc23)ccc1OCC(=O)O [Example 103, 2-Methyl-4-[2-(4-trifluoromethylphenyl)-3H-imidazo[4,5-b]pyridin-7-ylmethylsulfanyl]phenoxyacetic Acid]
Second: Cc1cc(SCc2ccnc3[nH]c(-c4ccc(C(F)(F)F)cc4)nc23)ccc1CCC(=O)O [Example 104, 3-{2-Methyl-4-[2-(4-trifluoromethylphenyl)-3H-imidazo[4,5-b]pyridin-7-ylmethylsulfanyl]phenyl}propionic Acid]
The melting point of the first is higher: 239 to 241 °C for the first, 180 to 182 °C for the second.

First: Cc1cc(SC(C)c2ccc3nc(-c4ccc(C(F)(F)F)cc4)sc3c2)ccc1CCC(=O)O (racemic) [Example 63, (+/−)-3-(2-Methyl-4-{1-[2-(4-trifluoromethylphenyl)benzothiazol-6-yl]ethylsulfanyl}phenyl)propionic Acid]
Second: Cc1cc(SCc2cccc3nc(-c4ccc(C(F)(F)F)cc4)sc23)ccc1CCC(=O)O [Example 46, 3-{2-Methyl-4-[2-(4-trifluoromethylphenyl)benzothiazol-7-ylmethylsulfanyl]phenyl}propionic Acid]
The melting point of the first is higher: 159 to 161 °C for the first, 136 to 139 °C for the second.

First: CCc1cc(SCc2cccc3sc(-c4ccc(C(F)(F)F)cc4)nc23)ccc1OCC(=O)O [Example 40]
Second: CCc1cc(SCc2ccc3sc(-c4ccc(C(F)(F)F)cc4)nc3c2)ccc1OCC(=O)O [Example 53, 2-Ethyl-4-[2-(4-trifluoromethylphenyl)benzothiazol-5-ylmethylsulfanyl]phenoxyacetic Acid]
The melting point of the first is lower: 89 to 92 °C for the first, 140 to 142 °C for the second.

First: Cc1cc(SCc2cccc3nc(-c4ccc(C(F)(F)F)cc4)sc23)ccc1OCC(=O)O [Example 44, 2-Methyl-4-[2-(4-trifluoromethylphenyl)benzothiazol-7-ylmethylsulfanyl]phenoxyacetic Acid]
Second: Cc1cc(SCc2ccc3nc(-c4ccc(C(F)(F)F)cc4)sc3c2)ccc1OCC(=O)O [Example 57, 2-Methyl-4-[2-(4-trifluoromethylphenyl)benzothiazol-6-ylmethylsulfanyl]phenoxyacetic Acid]
The melting point of the first is higher: 193 to 196 °C for the first, 176 to 177 °C for the second.

Compared with `Cc1cc(SCc2ccnc3sc(-c4ccc(C(F)(F)F)cc4)nc23)ccc1CCC(=O)O` [Example 101, 3-{2-Methyl-4-[2-(4-trifluoromethylphenyl)thiazolo[5,4-b]pyridin-7-ylmethylsulfanyl]phenyl}propionic Acid], `Cc1cc(OCc2ccc3sc(-c4ccc(C(F)(F)F)cc4)nc3c2)ccc1CCC(=O)O` [Example 54, 3-{2-Methyl-4-[2-(4-trifluoromethylphenyl)benzothiazol-5-ylmethoxy]phenyl}propionic Acid] is higher in melting point: 65 to 70 °C for the first, 174 to 176 °C for the second.

Compared with `Cc1cc(OC(C)c2cccc3nc(-c4ccc(C(F)(F)F)cc4)oc23)ccc1CCC(=O)O` (racemic) [Example 83, (+/−)-3-(2-Methyl-4-{1-[2-(4-trifluoromethylphenyl)benzooxazol-7-yl]ethoxy}phenyl)propionic Acid], `Cc1cc(SC(C)c2cccc3nc(-c4ccc(C(F)(F)F)cc4)oc23)ccc1OCC(=O)O` (racemic) [Example 79, (+/−)-2-Methyl-4-{1-[2-(4-trifluoromethylphenyl)benzooxazol-7-yl]ethylsulfanyl}phenoxyacetic Acid] is lower in melting point: 142 to 144 °C for the first, 134 to 138 °C for the second.

First: O=C(O)Cc1cccc(SCc2ccnc3[nH]c(-c4ccc(C(F)(F)F)cc4)nc23)c1 [Example 107]
Second: O=C(O)Cc1cccc(SCc2cccc3[nH]c(-c4ccc(C(F)(F)F)cc4)nc23)c1 [Example 88, 3-[2-(4-Trifluoromethylphenyl)-1H-benzoimidazol-4-ylmethylsulfanyl]phenylacetic Acid]
The melting point of the first is higher: 213 to 215 °C for the first, 180 to 183 °C for the second.

First: CCc1cc(SCc2cccc3nc(-c4ccc(C(F)(F)F)cc4)oc23)ccc1OCC(=O)O [Example 72, 2-Ethyl-4-[2-(4-trifluoromethylphenyl)benzooxazol-7-ylmethylsulfanyl]phenoxyacetic Acid]
Second: Cc1cc(SCc2cccc3nc(-c4ccc(C(F)(F)F)cc4)oc23)ccc1OCC(=O)O [Example 68, 2-Methyl-4-[2-(4-trifluoromethylphenyl)-benzooxazol-7-ylmethylsulfanyl]-phenoxyacetic Acid]
The melting point of the first is lower: 170 to 173 °C for the first, 180 to 182 °C for the second.

First: O=C(O)Cc1cccc(SCc2cccc3nc(-c4ccc(C(F)(F)F)cc4)oc23)c1 [Example 73, 3-[2-(4-Trifluoromethylphenyl)benzooxazol-7-ylmethylsulfanyl]phenylacetic Acid]
Second: CCc1cc(SCc2cccc3oc(-c4ccc(C(F)(F)F)cc4)nc23)ccc1OCC(=O)O [Example 67, 2-Ethyl-4-[2-(4-trifluoromethylphenyl)benzooxazol-4-ylmethylsulfanyl]phenoxyacetic Acid]
The melting point of the first is higher: 147 to 149 °C for the first, 127 to 128 °C for the second.

Molecule `CCc1cc(SCc2ccc3nc(-c4ccc(C(F)(F)F)cc4)sc3c2)ccc1OCC(=O)O` [Example 59, 2-Ethyl-4-[2-(4-trifluoromethylphenyl)benzothiazol-6-ylmethylsulfanyl]phenoxyacetic Acid] has a melting point of 144 to 147 °C.

In the case of `Cc1cc(SCc2cccc3oc(-c4ccc(C(F)(F)F)cc4)nc23)ccc1OCC(=O)O` [Example 65, 2-Methyl-4-[2-(4-trifluoromethylphenyl)benzooxazol-4-ylmethylsulfanyl]-phenoxyacetic Acid], the melting point was 160 to 162 °C (dec.).
